For 17 compounds, IC50 results are on record in US20090304692A1, “TRIAZINE COMPOUNDS AS PI3 KINASE AND MTOR INHIBITORS” (Wyeth, priority 2008, published 2009).

Assay [1] deals with Human mTOR (FLAG-TOR) (Homo sapiens, UniProt P42345). The assay can be described thus: mTOR kinase assay (DELFIA format, purified enzyme). It counts as biochemical. To be noted: read-out: IC50 mTOR.
The target in assay [2] is PI3K-α (Homo sapiens, UniProt P42336). The assay can be described thus: PI3K-alpha fluorescence polarization assay. The conditions noted are these: read-out: IC50 PI3Kα.
The test system of assay [3] is human prostate PC3-mm2 tumor cell line. The assay can be described thus: In vitro cell culture growth assay (MTS), PC3-mm2. It is filed as cell-based. The conditions noted are these: Homo sapiens, PC3MM2, 72 h, MTS cell growth assay, three days after drug treatment, read-out: IC50 PC3-mm2. For orientation: Tetrazolium assays rely on reduction of a dye to a coloured formazan, in cell work by metabolically active cells.

Assay [4] concerns human breast MDA-MB-361 tumor cell line. The assay can be described thus: In vitro cell culture growth assay (MTS), MDA-MB-361. It counts as cell-based. The conditions noted are these: Homo sapiens, MDA-MB-361, 72 h, MTS cell growth assay, three days after drug treatment, read-out: IC50 MDA-MB-361.
Assay [5] deals with PI3K-γ (Homo sapiens, UniProt P48736). The assay can be described thus: PI3K-gamma fluorescence polarization assay. To be noted: read-out: IC50 PI3Kγ. On the technique in general: In fluorescence polarisation assays a small probe gives low polarisation when free and higher when bound to something large.

Where “and” joins values, the source holds several entries; their conditions need not be identical. Equal values may be shown once. Read-outs that look alike come from different tables or passages of the source.

PI3K-α, sequence (P42336 whole entry, species assumed): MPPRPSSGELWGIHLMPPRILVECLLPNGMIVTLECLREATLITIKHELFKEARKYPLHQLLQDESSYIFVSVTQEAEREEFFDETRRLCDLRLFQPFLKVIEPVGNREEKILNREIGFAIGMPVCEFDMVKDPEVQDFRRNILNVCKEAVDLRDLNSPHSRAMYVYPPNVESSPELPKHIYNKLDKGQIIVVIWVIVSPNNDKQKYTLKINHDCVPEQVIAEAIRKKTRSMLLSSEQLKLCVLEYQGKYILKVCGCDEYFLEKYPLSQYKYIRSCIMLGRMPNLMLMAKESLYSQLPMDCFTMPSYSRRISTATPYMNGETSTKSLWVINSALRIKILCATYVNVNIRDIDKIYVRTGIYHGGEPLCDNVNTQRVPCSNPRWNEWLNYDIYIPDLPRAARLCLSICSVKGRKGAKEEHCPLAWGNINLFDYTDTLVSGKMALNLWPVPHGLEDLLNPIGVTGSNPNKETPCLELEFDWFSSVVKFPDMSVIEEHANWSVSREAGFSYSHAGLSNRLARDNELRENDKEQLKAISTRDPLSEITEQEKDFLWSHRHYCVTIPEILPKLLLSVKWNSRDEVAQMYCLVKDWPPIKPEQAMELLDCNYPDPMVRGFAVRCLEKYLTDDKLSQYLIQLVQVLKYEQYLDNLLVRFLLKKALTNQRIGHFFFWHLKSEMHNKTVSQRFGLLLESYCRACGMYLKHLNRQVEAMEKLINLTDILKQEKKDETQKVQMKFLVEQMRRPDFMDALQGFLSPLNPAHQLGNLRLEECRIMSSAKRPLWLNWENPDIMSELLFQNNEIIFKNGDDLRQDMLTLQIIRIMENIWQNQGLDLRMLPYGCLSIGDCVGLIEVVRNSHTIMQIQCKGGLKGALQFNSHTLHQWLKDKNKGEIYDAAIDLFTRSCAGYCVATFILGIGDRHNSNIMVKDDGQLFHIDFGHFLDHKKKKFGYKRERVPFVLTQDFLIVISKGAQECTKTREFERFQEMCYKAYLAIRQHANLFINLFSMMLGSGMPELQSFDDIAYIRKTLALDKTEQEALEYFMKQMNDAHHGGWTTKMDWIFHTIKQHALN
PI3K-α, sequence (P27986 whole entry partner, species assumed): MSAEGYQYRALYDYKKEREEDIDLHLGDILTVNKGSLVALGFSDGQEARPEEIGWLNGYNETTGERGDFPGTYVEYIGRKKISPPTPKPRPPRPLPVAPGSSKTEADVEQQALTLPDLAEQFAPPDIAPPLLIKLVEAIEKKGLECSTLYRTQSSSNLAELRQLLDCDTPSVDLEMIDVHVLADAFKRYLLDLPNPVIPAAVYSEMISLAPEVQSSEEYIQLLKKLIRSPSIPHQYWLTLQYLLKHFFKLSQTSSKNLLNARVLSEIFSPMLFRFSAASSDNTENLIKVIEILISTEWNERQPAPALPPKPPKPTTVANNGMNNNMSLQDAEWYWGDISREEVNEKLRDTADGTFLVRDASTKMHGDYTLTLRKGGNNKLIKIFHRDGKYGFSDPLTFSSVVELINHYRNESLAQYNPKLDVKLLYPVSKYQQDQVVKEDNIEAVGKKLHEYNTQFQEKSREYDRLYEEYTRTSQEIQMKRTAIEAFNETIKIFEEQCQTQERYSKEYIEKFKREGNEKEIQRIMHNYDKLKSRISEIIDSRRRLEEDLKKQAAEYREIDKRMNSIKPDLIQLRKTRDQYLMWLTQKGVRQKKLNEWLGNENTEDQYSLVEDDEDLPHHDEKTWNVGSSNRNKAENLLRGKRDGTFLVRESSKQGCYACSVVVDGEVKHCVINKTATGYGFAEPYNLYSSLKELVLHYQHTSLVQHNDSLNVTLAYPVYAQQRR
PI3K-γ, sequence (P48736 whole entry, species assumed): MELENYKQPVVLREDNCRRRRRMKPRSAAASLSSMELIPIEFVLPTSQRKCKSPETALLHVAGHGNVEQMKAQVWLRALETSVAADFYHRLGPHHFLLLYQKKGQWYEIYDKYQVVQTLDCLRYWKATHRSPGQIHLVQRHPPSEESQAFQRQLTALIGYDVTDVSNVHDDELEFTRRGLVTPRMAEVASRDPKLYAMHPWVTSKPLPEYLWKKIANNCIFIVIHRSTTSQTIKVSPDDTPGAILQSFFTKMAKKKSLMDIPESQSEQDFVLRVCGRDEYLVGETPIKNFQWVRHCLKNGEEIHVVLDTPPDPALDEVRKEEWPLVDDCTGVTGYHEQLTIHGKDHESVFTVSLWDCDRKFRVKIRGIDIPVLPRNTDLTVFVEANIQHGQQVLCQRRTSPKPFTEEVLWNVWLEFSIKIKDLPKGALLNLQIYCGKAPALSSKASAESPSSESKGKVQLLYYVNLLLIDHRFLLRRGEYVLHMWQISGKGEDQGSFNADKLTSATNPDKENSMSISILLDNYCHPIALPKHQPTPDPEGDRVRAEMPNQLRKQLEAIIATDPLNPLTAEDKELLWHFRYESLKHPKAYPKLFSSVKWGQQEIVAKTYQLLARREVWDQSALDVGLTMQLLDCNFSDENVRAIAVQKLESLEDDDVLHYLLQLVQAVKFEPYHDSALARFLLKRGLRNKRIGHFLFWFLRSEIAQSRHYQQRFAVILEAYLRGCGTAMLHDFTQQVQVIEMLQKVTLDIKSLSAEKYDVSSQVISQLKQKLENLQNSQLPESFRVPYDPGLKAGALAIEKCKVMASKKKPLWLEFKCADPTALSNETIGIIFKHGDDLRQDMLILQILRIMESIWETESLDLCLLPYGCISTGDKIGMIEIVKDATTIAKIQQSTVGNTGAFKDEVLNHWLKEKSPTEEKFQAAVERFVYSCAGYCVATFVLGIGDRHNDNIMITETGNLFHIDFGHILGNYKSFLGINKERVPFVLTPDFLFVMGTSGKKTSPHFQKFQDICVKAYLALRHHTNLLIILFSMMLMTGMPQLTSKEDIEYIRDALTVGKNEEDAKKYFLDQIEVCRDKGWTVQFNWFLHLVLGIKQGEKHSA
Human mTOR (FLAG-TOR), sequence (P42345 1360-2549 limits assumed): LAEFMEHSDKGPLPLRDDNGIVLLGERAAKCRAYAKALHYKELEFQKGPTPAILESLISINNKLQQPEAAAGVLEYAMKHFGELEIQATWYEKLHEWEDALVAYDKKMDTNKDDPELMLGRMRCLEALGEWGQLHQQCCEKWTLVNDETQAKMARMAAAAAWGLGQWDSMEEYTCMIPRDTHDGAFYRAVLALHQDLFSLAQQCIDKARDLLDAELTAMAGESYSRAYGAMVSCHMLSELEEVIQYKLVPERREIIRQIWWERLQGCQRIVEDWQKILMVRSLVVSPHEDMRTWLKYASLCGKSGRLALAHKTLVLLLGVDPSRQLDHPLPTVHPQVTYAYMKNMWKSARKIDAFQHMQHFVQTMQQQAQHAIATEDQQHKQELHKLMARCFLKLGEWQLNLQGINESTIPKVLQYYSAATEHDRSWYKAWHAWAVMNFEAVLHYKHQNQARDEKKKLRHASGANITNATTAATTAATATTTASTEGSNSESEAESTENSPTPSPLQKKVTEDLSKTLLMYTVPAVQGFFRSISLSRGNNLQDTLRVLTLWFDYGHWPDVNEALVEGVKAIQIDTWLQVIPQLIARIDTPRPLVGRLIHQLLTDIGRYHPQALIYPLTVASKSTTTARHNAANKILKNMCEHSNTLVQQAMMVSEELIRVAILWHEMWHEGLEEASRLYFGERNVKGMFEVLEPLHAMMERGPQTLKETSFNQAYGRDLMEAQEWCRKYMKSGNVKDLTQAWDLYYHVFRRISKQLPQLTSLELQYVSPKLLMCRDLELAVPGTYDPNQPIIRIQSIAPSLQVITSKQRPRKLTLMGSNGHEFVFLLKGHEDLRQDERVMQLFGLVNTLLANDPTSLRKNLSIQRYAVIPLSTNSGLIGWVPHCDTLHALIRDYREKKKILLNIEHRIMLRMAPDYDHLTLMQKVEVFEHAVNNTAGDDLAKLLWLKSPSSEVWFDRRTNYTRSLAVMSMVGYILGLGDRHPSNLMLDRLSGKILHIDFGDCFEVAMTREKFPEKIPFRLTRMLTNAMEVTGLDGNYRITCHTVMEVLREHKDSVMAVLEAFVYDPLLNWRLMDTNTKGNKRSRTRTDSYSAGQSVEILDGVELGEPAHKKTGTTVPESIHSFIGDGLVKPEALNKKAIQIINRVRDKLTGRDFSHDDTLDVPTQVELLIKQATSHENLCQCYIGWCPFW

What is called IC50 is the concentration at which inhibition is half-maximal. Take `N#Cc1ccc(NC(=O)Nc2ccc(-c3nc(N4CCOCC4)nc(N4CCC5(CC4)OCCO5)n3)cc2)cc1` [Example 134, 1-(4-cyanophenyl)-3-{4-[4-(1,4-dioxa-8-azaspiro[4.5]dec-8-yl)-6-morpholin-4-yl-1,3,5-triazin-2-yl]phenyl}urea]: the IC50 in assay [1] was found to be 24.5 nM; in assay [2], 20 nM; in assay [3] (PC3-mm2 cells), 857 nM; in assay [3], 857 nM; in assay [4] it was 805 nM; in assay [5], 183 nM. Besides, in assay [5] (listed as 709), the IC50 came out at 182 nM.
Turning to `Cc1cc(NC(=O)Nc2ccc(-c3nc(N4CCOCC4)nc(N4CCC5(CC4)OCCO5)n3)cc2)ccn1` [Example 135, 1-{4-[4-(1,4-dioxa-8-azaspiro[4.5]dec-8-yl)-6-morpholin-4-yl-1,3,5-triazin-2-yl]phenyl}-3-(2-methylpyridin-4-yl)urea], the IC50 in assay [1] is 34 nM; in assay [2] it was 15 nM; in assay [2] (listed as 710), 15.5 nM; in assay [3] (PC3-mm2 cells) it was 509 nM; in assay [3], 509 nM; in assay [4] it was 533 nM. Also, the IC50 in assay [5] came out at 143 nM; in assay [5] (listed as 710) it was 144 nM.
With `O=C(Nc1ccncc1)Nc1ccc(-c2nc(-c3cnc4ccccc4c3)nc(N3CCOCC3)n2)cc1` [Example 137, 1-[4-(4-morpholin-4-yl-6-quinolin-3-yl-1,3,5-triazin-2-yl)phenyl]-3-pyridin-4-ylurea], the IC50 in assay [1] turned out to be 8.55 nM; in assay [2], 9 nM; in assay [2] (listed as 712) it was 9.5 nM; in assay [3] (PC3-mm2 cells), 551 nM; in assay [3], 551 nM; in assay [4] it was 582 nM. In addition, the IC50 in assay [5] came out at 117 nM.
As to `O=C(Nc1ccc(C(=O)N2CCOCC2)cc1)Nc1ccc(-c2nc(N3CCOCC3)nc(N3CCOCC3)n2)cc1` [Example 152, 1-[4-(4,6-dimorpholin-4-yl-1,3,5-triazin-2-yl)phenyl]-3-[4-(morpholin-4-ylcarbonyl)phenyl]urea], the half-maximal inhibitory concentration (IC50) in assay [1] is 2 nM; in assay [2] it was 2 nM; in assay [3], 14 nM; in assay [4], 9 nM; in assay [5] it was 5 nM.
With `Cc1nc(-c2ccc(NC(=O)Nc3ccncc3)cc2)nc(N2CCOCC2)n1` [Example 161, 1-[4-(4-methyl-6-morpholin-4-yl-1,3,5-triazin-2-yl)phenyl]-3-pyridin-4-ylurea], the IC50 worked out at 30 nM in assay [1]; 39 nM in assay [2]; 675 nM in assay [3]; 328 nM in assay [4]; 155 nM in assay [5].
For the compound `CN1CCN(C(=O)c2ccc(NC(=O)Nc3ccc(-c4nc(C5=CCOCC5)nc(N5CCOCC5)n4)cc3)cc2)CC1` [Example 163, 1-{4-[4-(3,6-dihydro-2H-pyran-4-yl)-6-morpholin-4-yl-1,3,5-triazin-2-yl]phenyl}-3-{4-[(4-methylpiperazin-1-yl)carbonyl]phenyl}urea], the IC50 was 3.9 nM and 3.2 nM in assay [1]; 2 nM in assay [2]; 1.6 nM in assay [2] (listed as 507); 28.3 nM in assay [3] (PC3-mm2 cells); 28.3 nM in assay [3]; 10.7 nM in assay [4] (MDA-MB-361 cells). In addition, the figures for the IC50 in assay [4], in assay [5] and in assay [5] (listed as 507) were 10.7 nM, 9 nM and 8.7 nM, respectively.
For `Cc1nc(-c2ccc(NC(=O)Nc3ccc(C(=O)N(C)CCN(C)C)cc3)cc2)nc(N2CCOCC2)n1` [Example 165, N-[2-(dimethylamino)ethyl]-N-methyl-4-({[4-(4-methyl-6-morpholin-4-yl-1,3,5-triazin-2-yl)phenyl]carbamoyl}amino)benzamide], the IC50 came out at 28 nM in assay [1]; 9 nM in assay [2]; 333 nM in assay [3]; 210 nM in assay [4]; 101 nM in assay [5].
Take `Cc1nc(-c2ccc(NC(=O)Nc3ccc(C(=O)N4CCN(C)CC4)cc3)cc2)nc(N2CCOCC2)n1` [Example 166, 1-[4-(4-methyl-6-morpholin-4-yl-1,3,5-triazin-2-yl)phenyl]-3-{4-[(4-methylpiperazin-1-yl)carbonyl]phenyl}urea]: the IC50 in assay [1] was 60 nM; in assay [2], 4 nM; in assay [3], 249 nM; in assay [4] it was 134 nM; in assay [5], 33 nM.
The matching figures for `CCCCc1nc(-c2ccc(NC(=O)Nc3ccc(C(=O)O)cc3)cc2)nc(N2CCOCC2)n1` [Example 184, 4-({[4-(4-butyl-6-morpholin-4-yl-1,3,5-triazin-2-yl)phenyl]carbamoyl}amino)benzoic acid]: 4 nM, 30 nM, 2090 nM, 1250 nM and 143 nM.
The matching figures for `CCCCc1nc(-c2ccc(NC(=O)Nc3ccncc3)cc2)nc(N2CCOCC2)n1` [Example 186, 1-[4-(4-butyl-6-morpholin-4-yl-1,3,5-triazin-2-yl)phenyl]-3-pyridin-4-ylurea]: 6 nM, 28 nM, 703 nM, 473 nM and 221 nM.
`O=C(Nc1ccncc1)Nc1ccc(-c2nc(N3CCOCC3)nc(N3C[C@@H]4C[C@H]3CO4)n2)cc1` [Example 189, 1-(4-{4-morpholin-4-yl-6-[(1S,4S)-2-oxa-5-azabicyclo[2.2.1]hept-5-yl]-1,3,5-triazin-2-yl}phenyl)-3-pyridin-4-ylurea]: the IC50 in assay [1] turned out to be 28 nM; in assay [2], 19 nM; in assay [3] it was 99 nM; in assay [4] it was 84 nM; in assay [5] it was 203 nM.
On to `C=C(OCC)c1nc(-c2ccc(NC(=O)Nc3ccncc3)cc2)nc(N2CCOCC2)n1` [Example 199, 1-{4-[4-(1-ethoxyvinyl)-6-morpholin-4-yl-1,3,5-triazin-2-yl]phenyl}-3-pyridin-4-ylurea], for which the IC50 is 1 nM in assay [1]; 44 nM in assay [2]; 93 nM in assay [3]; 96 nM in assay [4]; 144 nM in assay [5].
Take `COCCOc1nc(-c2ccc(NC(=O)Nc3ccncc3)cc2)nc(N2CCOCC2)n1` [Example 200, 1-{4-[4-(2-methoxyethoxy)-6-morpholin-4-yl-1,3,5-triazin-2-yl]phenyl}-3-pyridin-4-ylurea]: the IC50 in assay [1] was 6.5 nM and 6.45 nM; in assay [2], 14 nM; in assay [2] (listed as 714), 15.5 nM; in assay [3] (PC3-mm2 cells), 248 nM; in assay [3] it was 248 nM; in assay [4] it was 162 nM. For the same compound, the IC50 amounted to 128 nM in assay [5] and 69 nM in assay [5] (listed as 714).
`CC(=O)c1nc(-c2ccc(NC(=O)Nc3ccncc3)cc2)nc(N2CCOCC2)n1` [Example 209, 1-[4-(4-acetyl-6-morpholin-4-yl-1,3,5-triazin-2-yl)phenyl]-3-pyridin-4-ylurea]: the IC50 in assay [1] was determined as 9 nM; in assay [2], 24 nM; in assay [3], 278 nM; in assay [4], 174 nM; in assay [5] it was 99 nM.
Consider `COCCOc1nc(-c2ccc(NC(=O)Nc3ccc(C(=O)OC)cc3)cc2)nc(N2CCOCC2)n1` [Example 211, methyl 4-[({4-[4-(2-methoxyethoxy)-6-morpholin-4-yl-1,3,5-triazin-2-yl]phenyl}carbamoyl)amino]benzoate], for which the IC50 in assay [1] is 6 nM; in assay [2], 80 nM; in assay [2] (listed as 715) it was 59.5 nM; in assay [3] (PC3-mm2 cells), 389 nM; in assay [3], 389 nM; in assay [4], 254 nM. Further, the IC50 in assay [5] was 108 nM; in assay [5] (listed as 715) it was 146 nM.
Take `O=C(Nc1ccc(C(=O)O)cc1)Nc1ccc(-c2nc(C3=CCOCC3)nc(N3CCOCC3)n2)cc1` [Example 227, 4-[({4-[4-(3,6-dihydro-2H-pyran-4-yl)-6-morpholin-4-yl-1,3,5-triazin-2-yl]phenyl}carbamoyl)amino]benzoic acid]: the IC50 in assay [1] worked out at 7.3 nM; in assay [2] it was 23 nM; in assay [3], 4030 nM; in assay [4] it was 1500 nM; in assay [5] it was 81 nM.
Take `O=C(Nc1ccncc1)Nc1ccc(-c2nc(CCNc3ccncc3)nc(N3CCOCC3)n2)cc1` [Example 228, 1-(4-{4-morpholin-4-yl-6-[2-(pyridin-4-ylamino)ethyl]-1,3,5-triazin-2-yl}phenyl)-3-pyridin-4-ylurea]: the IC50 in assay [1] was 51 nM and 55 nM; in assay [2], 46 nM; in assay [2] (listed as 718), 40.5 nM; in assay [3] (PC3-mm2 cells) it was 7170 nM; in assay [3], 7170 nM; in assay [4], 3920 nM. For the same compound, the IC50 in assay [5] was determined as 280 nM; in assay [5] (listed as 718) it was 210 nM.
